# According to patent US20140357512A1, “HISTONE DEACETYLASE (HDAC) BIOMARKERS IN MULTIPLE MYELOMA” (priority 2013, published 2014):
# System: human myeloma cell line MM.1S
# Assay: SILAC acetylated-lysine peptide profiling, HDAC inhibitor vs DMSO (light/heavy ratio)
# Assay type: cell-based
# From the text: An embodiment of the invention comprises utilizing the SILAC method in order to quantitate changes in protein expression between two or more populations of cells. The SILAC method is a technique based on mass spectrometry that detects differences in protein abundance among samples using non-radioactive isotopic labeling. The SILAC method is known in the art, and described in detail in Ong et al., “Stable Isotope Labeling by Amino Acids in Cell Culture, SILAC, as a Simple and Accurate Approach to Expression Proteomics”, Molecular & Cellular Proteomics, vol. 1, pp. 376-386 (2002), which is incorporated herein by reference in its entirety.
# Briefly, the SILAC method involves growing two populations of cells in cell culture. The first population of cells is grown in growth media containing normal amino acids (“normal media”). The second population of cells is grown in media lacking a standard essential amino acid (such as lysine), but is then supplemented with a non-radioactive, isotopically labeled form of that essential amino acid (such as lysine labeled with ^13C atoms, rather than normal ^12C atoms), which is called “heavy media”. When the two populations of cells are each growing in the medium, they incorporate the amino acids into all of their proteins. The growth of cells maintained in the heavy media is no different from that in normal media. All peptides containing the heavy amino acids are heavier than their normal counterparts. The cells from each of the two populations of cells are lysed. The lysates from each of the two cell populations are then combined. The combined cell lysates are then analyzed by mass spectrometry. Pairs of chemically identical peptides of different stable isotope composition can be differentiated in a mass spectrometer due to their difference in mass. The ratio of peak intensities in the mass spectrum for such peptide pairs reflects the abundance ratio for the two proteins.
# This example describes SILAC studies that were performed to compare the effects of three different HDAC inhibitors (Compound A, Compound B, and tubastatin A) to a control on a human multiple myeloma cell line. The HDAC inhibitors were also compared amongst themselves to determine differences in their effects.
# A human myeloma cell line MM.1S was grown using either ^12C (light) or ^13C (heavy) lysine containing culture medium. The “heavy” cells were treated with DMSO as the control, and the “light” cells were treated with a single HDAC inhibitor at 37° C. for 6 hours. The heavy and light cells were lysed, and the lysates were mixed in 1:1 ratio and digested with the protease trypsin. The acetylated lysine containing peptides (due to the action of the HDAC inhibitor) in the digested peptide pool were captured by a non-specific anti-acetylated lysine antibody cocktail (the antibodies identify both light and heavy acetylated peptides), and subjected to mass spectrometry analysis in order to identify thousands of individual peptides.
# Thousands of peptides were identified in pairs (^12C and ^13C) due to their known mass differences. The amino acid sequence and quantitative ratio (Light/Heavy) of a given peptide in two differentially treated cell lysates were then determined and annotated with their possible protein (gene) sources.
# As stated above, three HDAC inhibitors (Compound A, Compound B, and Tubastatin A) were used. Thus, the SILAC method was performed three times, with a different HDAC inhibitor compared to a control each time. Accordingly, there are three pairs of quantitative data in the table below, i.e., Compound A:DMSO, Compound B:DMSO, and Tubastatin A:DMSO. A cut-off of 1.30 fold of change (increase or decrease) was then used to determine “changed” or “+” in the table, and any peptides with a fold of change less than 1.3 fold were determined to be “unchanged” or “0” in the table. Those peptides that were not identified were marked as “NA” in the table. […]
compound,measurement,setting,value
"O=C(CCCCCCNC(=O)c1cnc(N(c2ccccc2)c2ccccc2)nc1)NO [Compound A, 2-(diphenylamino)-N-(7-(hydroxyamino)-7-oxoheptyl)pyrimidine-5-carboxamide]",light to heavy ratio (L/H ratio) of acetylated peptide MTDK(ac)CFR (SEQ ID NO: 573),"Mitochondrial import inner membrane translocase subunit Tim13 [45], gene TIMM13, inhibitor:DMSO",0.42 log 2
same,"light to heavy ratio (L/H ratio), log 2 scale, acetylated peptide YVK(ac)ALFR (SEQ ID NO: 771)","Mitochondrial import receptor subunit TOM70 [188], gene TOMM70A, drug:DMSO",0.99
same,light to heavy ratio (L/H ratio) of acetylated peptide (ac)AEPVSPLK(ac)HFVLAK (SEQ ID NO: 508),"Mitochondrial transmembrane GTPase FZO-2 [37], gene MFN1, inhibitor:DMSO",−0.63 log 2
same,light to heavy ratio (L/H ratio) of acetylated peptide LSLLSK(ac)FR (SEQ ID NO: 564),"Mitochondrial trifunctional protein beta subunit (Fragment) [100], gene HADHB, inhibitor:DMSO",0.41 log 2
same,light to heavy ratio (L/H ratio) of acetylated peptide EIFQNEK(ac)R (SEQ ID NO: 288),"NAD(P) transhydrogenase mitochondrial [70], NNT, drug:DMSO",0.64 log 2
same,light to heavy ratio (L/H ratio) of acetylated peptide AISPDK(ac)DNFYFDVK (SEQ ID NO: 284),"NAD(P) transhydrogenase mitochondrial [403], NNT, drug:DMSO",0.61 log 2
same,L/H ratio of acetylated peptide,"NK(ac)WFFQK (SEQ ID NO: 498), 60S ribosomal protein L27 [128], RPL27",−0.86 log 2
same,L/H ratio of acetylated peptide,"NK(ac)YGDAFIR (SEQ ID NO: 496), U6 snRNA-associated Sm-like protein LSm6 [59], LSM6",−0.93 log 2
same,L/H ratio of acetylated peptide ADKDYHFK(ac)[…] (SEQ ID NO: 61),"NPM1 [32], log 2 scale, drug vs DMSO",0.00
same,L/H ratio of acetylated peptide FINYVK(ac)NCFR (SEQ ID NO: 62),"NPM1 [244], log 2 scale, drug vs DMSO",0.00
same,L/H ratio of acetylated peptide GVTQFGNK(ac)[…] (SEQ ID NO: 18),"NUDT21 [23], log 2 scale, drug vs DMSO",1.00
same,light to heavy ratio (L/H ratio) of acetylated peptide FCLSK(ac)PGVYK (SEQ ID NO: 345),"Nodal modulator 1 [630], NOMO3, NOMO1, drug:DMSO",0.00 log 2
same,light to heavy ratio (L/H ratio) of acetylated peptide […](ac)R (SEQ ID NO: 532),"Nucleosome assembly protein 1-like 1 [116], gene NAP1L1, inhibitor:DMSO",−0.41 log 2
same,L/H ratio of acetylated peptide SGVGNVFIK(ac)NLDK (SEQ ID NO: 63),"PABPC4 [104], log 2 scale, drug vs DMSO",0.00
same,L/H ratio of acetylated peptide […](ac)IFR (SEQ ID NO: 66),"PDIA3 [104], log 2 scale, drug vs DMSO",0.00
same,L/H ratio of acetylated peptide PSHLTNK(ac)FEDK (SEQ ID NO: 65),"PDIA3 [214], log 2 scale, drug vs DMSO",0.00
same,L/H ratio of acetylated peptide GEK(ac)FVMQEEFSR (SEQ ID NO: 64),"PDIA3 [335], log 2 scale, drug vs DMSO",0.00
same,L/H ratio of acetylated peptide SLLGK(ac)DVLFLK (SEQ ID NO: 67),"PGK1 [91], log 2 scale, drug vs DMSO",0.00
same,"light to heavy ratio (L/H ratio) of acetylated peptide, log 2 scale","PLISVYSEK(ac)GESSGK (SEQ ID NO: 247), 60S ribosomal protein L4 [14], RPL4",−0.54
same,L/H ratio of acetylated peptide SIYGEK(ac)FEDENFILK (SEQ ID NO: 68),"PPIA [82], log 2 scale, drug vs DMSO",0.00
same,L/H ratio of acetylated peptide VIFGLFGK(ac)TVPK (SEQ ID NO: 70),"PPIB [67], log 2 scale, drug vs DMSO",0.00
same,L/H ratio of acetylated peptide TVPK(ac)[…] (SEQ ID NO: 69),"PPIB [71], log 2 scale, drug vs DMSO",0.00
same,L/H ratio of acetylated peptide VIK(ac)[…] (SEQ ID NO: 71),"PPIB [98], log 2 scale, drug vs DMSO",0.00
same,L/H ratio of acetylated peptide IYGFYDECK(ac)R (SEQ ID NO: 72),"PPP1CC [141], log 2 scale, drug vs DMSO",0.00
same,light to heavy ratio (L/H ratio) of acetylated peptide TAWLDGK(ac)HVVFGK (SEQ ID NO: 592),"Peptidyl-prolyl cis-trans isomerase B [165], gene PPIB, inhibitor:DMSO",0.44 log 2
same,light to heavy ratio (L/H ratio) of acetylated peptide FPDENFK(ac)LK (SEQ ID NO: 347),"Peptidyl-prolyl cis-trans isomerase C [123], PPIC, drug:DMSO",0.00 log 2
same,light to heavy ratio (L/H ratio) of acetylated peptide HVVFGK(ac)VK (SEQ ID NO: 576),"Peptidylprolyl isomerase A (Cyclophilin A) (PPIA) pseudogene [141], gene PPIAP26, inhibitor:DMSO",0.42 log 2
same,light to heavy ratio (L/H ratio) of acetylated peptide LAK(ac)YFFNK (SEQ ID NO: 604),"Periodic tryptophan protein 2 homolog [279], gene PWP2, inhibitor:DMSO",0.46 log 2
same,light to heavy ratio (L/H ratio) of acetylated peptide AAWEHMK(ac)K (SEQ ID NO: 551),"Peroxisomal multifunctional enzyme type 2 [139], gene HSD17B4, inhibitor:DMSO",0.39 log 2
same,light to heavy ratio (L/H ratio) of acetylated peptide FAK(ac)[…] (SEQ ID NO: 557),"Peroxisomal multifunctional enzyme type 2 [565], gene HSD17B4, inhibitor:DMSO",0.40 log 2
same,light to heavy ratio (L/H ratio) of acetylated peptide […](ac)EALKK (SEQ ID NO: 619),"Poly [ADP-ribose] polymerase 1 [192], gene PARP1, inhibitor:DMSO",0.48 log 2
same,light to heavy ratio (L/H ratio) of acetylated peptide […](ac)DELKK (SEQ ID NO: 346),"Poly [ADP-ribose] polymerase 1 [249], PARP1, drug:DMSO",0.00 log 2
same,light to heavy ratio (L/H ratio) of acetylated peptide […](ac)NVLK (SEQ ID NO: 527),"Pre-mRNA-processing-splicing factor 8 [2108], gene PRPF8, inhibitor:DMSO",−0.44 log 2
same,light to heavy ratio (L/H ratio) of acetylated peptide ALK(ac)YLVMDEADR (SEQ ID NO: 513),"Probable ATP-dependent RNA helicase DDX47 [169], gene DDX47, inhibitor:DMSO",−0.58 log 2
same,light to heavy ratio (L/H ratio) of acetylated peptide (ac)AAK(ac)VFESIGK (SEQ ID NO: 277),"Prohibitin [4], PHB, drug:DMSO",0.54 log 2
